Test [1] deals with dopamine D1 receptor (Macaca mulatta (Rhesus macaque), UniProt O77680). Description: Affinity on dopamine D1 receptor, competition with [3H] SCH23390. The format is binding. Set-up: D1 receptor inhibition ratio (%): concentration or dose not given beside the values. As to conditions: for affinity on dopamine D1 receptor (in words): summary of the tables. Here is the method: (§1) (1). Determination of the Affinity of Hexahydrodibenzo[a,g]Quinolizine Compound of General Formula I and Derivatives Thereof on Dopamine D1, Dopamine D2, 5-HT1A, and 5-HT2A Receptor.
Chain of dopamine D1 receptor (O77680 whole entry): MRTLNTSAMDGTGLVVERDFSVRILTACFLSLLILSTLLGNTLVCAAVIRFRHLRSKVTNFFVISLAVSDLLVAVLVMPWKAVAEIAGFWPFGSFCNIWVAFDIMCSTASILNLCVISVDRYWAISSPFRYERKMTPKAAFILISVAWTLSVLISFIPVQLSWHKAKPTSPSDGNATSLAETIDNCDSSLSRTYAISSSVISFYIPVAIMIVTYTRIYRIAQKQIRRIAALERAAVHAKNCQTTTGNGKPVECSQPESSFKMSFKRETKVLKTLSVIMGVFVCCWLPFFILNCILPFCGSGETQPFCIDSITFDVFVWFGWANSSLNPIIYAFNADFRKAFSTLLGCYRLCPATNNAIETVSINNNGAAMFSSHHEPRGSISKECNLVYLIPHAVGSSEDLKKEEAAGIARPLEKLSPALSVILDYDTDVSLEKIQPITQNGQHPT
(§2) 1) The Experimental Method
(§3) Different concentrations (10^−5 M-10^−11 M) of the compound of the invention and corresponding isotope receptor ligand as well as receptor protein were loaded into the reaction tube and incubated in 30° C. water bath for 60 minutes. The reaction was terminated in a refrigerator. The reaction mixture was put in a Millipore filter (millipore) cell sample collector, filtered through suction filtration using GF/C glass fiber filter paper, and dried. The resulting sample was placed into 0.5 mL tube. 500 μL liquid scintillation fluid was added and intensity of radioactivity was determined by counting.
(§4) (1) Construction of receptor and materials for cell culture: Escherichia coli. DH5α strain; insect virus transfer vector pVL1393 plasmid; BaculoGold linear Chinese baculovirus DNA, purchased from ParMingen company; mkD1RcDNA; rD2R cDNA; various restriction endonucleases, TaqDNA polymerase, T4 ligase, etc., LB medium; insect cell culture TNM-FH.
(§5) (2) the Experimental Materials for Receptor Binding
(§6) Firstly, the above […] are dissolved in DMSO and then diluted with double distilled water to the appropriate concentration (10^−5 M-10^−11 M).
(§7) (+) Butaclamo purchased from RBI company, GF/C glass fiber filter paper purchased from Whatman Co., scintillation fluid (dopamine D1, D2 receptors)/liposoluble scintillation fluid (5-HT1A, 5-HT2A receptor), Beckman LS-6500 multi-function liquid scintillation counter.

Test [2] concerns the target dopamine D2 receptor (Homo sapiens (Human), UniProt P14416). The test can be described thus: Radioligand binding assay, D2 receptor, HEK293T membrane homogenates. As to conditions: HEK293T membranes, [3H]Spiperone. Set-up: D2 Inhibition (%): concentration or dose not given beside the values. As to the method: (§8) The affinity of compounds to D1 and D2 dopamine receptors were determined by competition binding assays. Membrane homogenates of HEK293T cells were stably transfected with D1, or D2 receptors. […] The reaction was started by addition of membranes ([…]) and stopped by rapid filtration through Whatman GF/B glassfiber filter and subsequently washed with cold buffer (50 mM Tris, 5 mM EDTA, pH 7.4) using a Brandel 24-well cell harvester. Scintillation cocktail was added and the radioactivity was determined in a MicroBeta liquid scintillation counter. The IC50 and Ki values were calculated by nonlinear regression (PRISM, Graphpad, San Diego, Calif.) using a sigmoidal function.

Test [3] has as its target D1 dopamine receptors (Homo sapiens (Human), UniProt P21728). The test can be described thus: Radioligand binding assay, D1 receptor, HEK293T membrane homogenates. Conditions: HEK293T membranes, [3H]SCH23390. Here is the method: as §8
The target of test [4] is D2 dopamine receptor (Rattus norvegicus (Rat), UniProt P61169). The test can be described thus: Affinity on dopamine D2 receptor, competition with [3H] Spiperone. In kind it is binding. Set-up: D2 receptor inhibition ratio (%): concentration or dose not given beside the values. As to conditions: for affinity on dopamine D2 receptor (in words): summary of the tables. As to the method: as §1, §2, §3, §4, §5, §6, §7
Chain of D2 dopamine receptor (P61169 whole entry): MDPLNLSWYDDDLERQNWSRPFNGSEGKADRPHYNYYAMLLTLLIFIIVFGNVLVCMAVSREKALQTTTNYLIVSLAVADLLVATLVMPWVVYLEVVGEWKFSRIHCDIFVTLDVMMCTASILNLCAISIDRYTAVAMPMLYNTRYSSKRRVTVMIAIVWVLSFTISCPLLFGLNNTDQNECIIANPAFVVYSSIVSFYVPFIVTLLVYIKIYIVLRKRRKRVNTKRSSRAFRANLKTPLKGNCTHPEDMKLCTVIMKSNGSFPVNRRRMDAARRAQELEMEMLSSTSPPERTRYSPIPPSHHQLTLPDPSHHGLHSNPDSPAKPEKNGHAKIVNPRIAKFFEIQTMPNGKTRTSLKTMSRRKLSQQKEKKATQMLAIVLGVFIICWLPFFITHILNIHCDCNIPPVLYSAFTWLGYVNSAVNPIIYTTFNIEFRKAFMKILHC

The target in test [5] is 5-HT1A receptor (Homo sapiens (Human), UniProt P08908). The test can be described thus: Affinity on 5-HT1A receptor, competition with [3H] 8-OH-DPAT. In kind it is binding. Here is the method:
as §1, §2, §3, §5
8-OH-DPAT; 5-HT1A receptor protein expressed in HEK-293 cells;
as §6, §7

For test [6], the target named is D1 receptor (Homo sapiens (Human), UniProt P21728). Description: [35S]GTPγS binding assay for D1 receptor. The format is biochemical. Conditions: [35S]GTPγS binding; read-out: D1 agonist Emax %. On the technique in general: GTPγS is a poorly hydrolysed GTP analogue; its binding reports G protein activation.
Chain of D1 receptor (P21728 whole entry): as the sequence (O77680 whole entry) above, with I311N counted along it

Molecules are shown by their SMILES.

Chain of D1 dopamine receptors (P21728 whole entry): as the sequence (O77680 whole entry) above, with I311N counted along it
Chain of dopamine D2 receptor (P14416 whole entry, species assumed): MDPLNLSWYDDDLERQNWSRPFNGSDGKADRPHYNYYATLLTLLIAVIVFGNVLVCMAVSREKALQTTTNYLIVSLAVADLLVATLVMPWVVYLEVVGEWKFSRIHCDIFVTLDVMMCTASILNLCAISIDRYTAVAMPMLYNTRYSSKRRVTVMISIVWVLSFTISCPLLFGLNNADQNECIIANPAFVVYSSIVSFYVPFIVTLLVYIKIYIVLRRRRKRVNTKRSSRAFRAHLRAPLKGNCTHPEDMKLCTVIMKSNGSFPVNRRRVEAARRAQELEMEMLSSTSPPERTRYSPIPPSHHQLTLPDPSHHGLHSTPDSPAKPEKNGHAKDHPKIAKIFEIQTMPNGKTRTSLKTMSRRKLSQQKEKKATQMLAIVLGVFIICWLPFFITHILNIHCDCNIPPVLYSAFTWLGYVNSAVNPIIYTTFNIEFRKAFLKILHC
Chain of 5-HT1A receptor (P08908 whole entry): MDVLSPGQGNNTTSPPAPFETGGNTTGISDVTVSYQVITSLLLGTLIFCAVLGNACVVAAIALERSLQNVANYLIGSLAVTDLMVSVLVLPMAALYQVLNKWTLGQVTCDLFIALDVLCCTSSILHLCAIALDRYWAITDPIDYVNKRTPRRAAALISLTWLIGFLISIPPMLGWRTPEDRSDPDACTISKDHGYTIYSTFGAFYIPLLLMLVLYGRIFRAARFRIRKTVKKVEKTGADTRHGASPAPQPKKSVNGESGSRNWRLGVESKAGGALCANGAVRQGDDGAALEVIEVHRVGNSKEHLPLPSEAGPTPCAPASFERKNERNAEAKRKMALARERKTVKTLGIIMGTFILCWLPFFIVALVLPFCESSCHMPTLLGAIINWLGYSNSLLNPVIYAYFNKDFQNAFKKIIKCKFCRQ

Broadly, the IC50 is the concentration needed to halve the response being measured. A word on the Ki: it is a measure of affinity in units of concentration, obtained from inhibition or displacement. As for `COc1cc2c(cc1O)[C@@H]1Cc3cc(C)cc(C)c3CN1CC2` [DC037031, S-(−)-2-hydroxy-3-methoxy-9,11-dimethyl-5,8,13,13a-tetra-hydro-6H-dibenzo[a,g]quinolizine], in test [1], the “D1 receptor inhibition ratio (%)” value stood at 98.99%, the IC50 was 56.4 nM, the Ki is 28.9 nM and the “affinity on dopamine D1 receptor (in words)” value was “strong affinity”. The compound also displayed a Ki in test [2] of 161 ± 21.1 nM. The compound also came in with a Ki in test [3] of 28.9 ± 2.73 nM. Moreover, in test [4], the “D2 receptor inhibition ratio (%)” value stood at 90.10%, the IC50 turned out to be 456 nM, the Ki turned out to be 161 nM and the “affinity on dopamine D2 receptor (in words)” value is given as “strong affinity”.

Take `COc1cc2c(cc1OC)[C@@H]1Cc3c(CO)c(OC)cc(OC)c3CN1CC2` [DC037076, (S)-2,3,9,11-tetramethoxy-12-hydroxymethyl-5,8,13,13a-tetra-hydro-6H-dibenzo[a,g]quinolizine]: the “D2 Inhibition (%)” value in test [2] is 1.02%. In test [3], this compound displayed a Ki of 74.5 ± 3.85 nM.

For `COc1ccc(OC)c2c1C[C@H]1c3cc4c(cc3CCN1C2)CCO4` [DC037034, S-(+9,12-bimethoxy-2,3,5,8,13,13a-hexahydro-8H-benzo[3,2,a,g]furanquinolizine], in test [1], the IC50 was determined as 484 nM and the Ki is 248 nM. Besides, affinity in test [5] was put at a Ki of 497 nM.

Consider `COc1cc2c(cc1OC)C1Cc3cc(O)c(O)cc3CN1CC2` (racemic) [DC037022, (±)-2,3-bimethoxy-10,11-bihydroxy-5,8,13,13a-tetrahydro-6H-dibenzo[a,g]quinolizine], for which, in test [1], the “D1 receptor inhibition ratio (%)” value was 89.0%, the IC50 amounted to 1010 nM and the Ki came to 498 nM. Besides, the “D2 receptor inhibition ratio (%)” value in test [4] was determined as 10.6%.

For the compound `COc1cc2c(cc1OC)CN1CCc3cc4c(cc3C1C2)OCO4` (racemic) [DC037021, (±)-2,3-methylenedioxy-10,11-bimethoxy-5,8,13,13a-tetrahydro-6H-dibenzo[a,g]quinolizine], the “D1 receptor inhibition ratio (%)” value in test [1] is 56.5%. In addition, the “D2 receptor inhibition ratio (%)” value in test [4] was determined as 44.5%.

Consider `COc1cc2c(cc1OC)[C@@H]1Cc3cc(OC)c(OC)c(OC)c3CN1CC2` [DC037006, S-(−)-2,3,9,10,11-pentamethoxyl-5,8,13,13a-tetrahydro-6H-dibenzo[a,g]quinolizine], for which, in test [1], the “D1 receptor inhibition ratio (%)” value is 91.75%, the IC50 was 648 nM and the Ki came out at 320 nM. Besides, in test [4], the “D2 receptor inhibition ratio (%)” value is 48.0%.

`COc1cc2c(c(OC)c1OC)CN1CCc3cc4c(cc3[C@@H]1C2)OCO4` [DC037016, S-(−)-2,3-methylenedioxy-9,10,11-bimethoxy-5,8,13,13a-tetra-hydro-6H-dibenzo[a,g]quinolizine]: in test [1], the “D1 receptor inhibition ratio (%)” value is listed as 95.5%, the IC50 came to 763 nM and the Ki turned out to be 377 nM. Also, in test [4], the “D2 receptor inhibition ratio (%)” value is recorded as 66.2%.

On to `COc1cc2c(cc1OC)[C@@H]1Cc3cc4c(cc3CN1CC2)OCO4` [DC037011, S-(−)-2,3-bimethoxy-10,11-methylenedioxy-5,8,13,13a-tetrahydro-6H-dibenzo[a,g]quinolizine], for which the “D1 receptor inhibition ratio (%)” value in test [1] is recorded as 59.3%. In test [4], the “D2 receptor inhibition ratio (%)” value is 41.7%.

For `COc1c(O)ccc2c1CN1CCc3cc4c(cc3[C@@H]1C2)OCCO4` [DC037082, S-(−)-2,3-bimethylenedioxy-9-methoxyl-10-hydroxy-5,8,13,13a-tetrahydro-6H-dibenzo[a,g]quinolizine], in test [1], the “D1 receptor inhibition ratio (%)” value amounted to 99.32%, the IC50 worked out at 14.7 nM, the Ki amounted to 7.51 nM and the “affinity on dopamine D1 receptor (in words)” value is “strong affinity”. Also, in test [4], the “D2 receptor inhibition ratio (%)” value was determined as 63.94% and the “affinity on dopamine D2 receptor (in words)” value is reported as “strong affinity”.

As to `COc1cc2c(cc1OC)CN1CCc3cc(OC)c(OC)cc3C1C2` (racemic) [DC037001, (±)-2,3,10,11-tetramethoxy-5,8,13,13a-tetrahydro-6H-dibenzo[a,g]quinolizine], the “D1 receptor inhibition ratio (%)” value in test [1] stood at 58.95%. Further, the “D2 receptor inhibition ratio (%)” value in test [4] came out at 14.7%.

With `COc1c(O)ccc2c1CN1CCc3cc4c(cc3[C@@H]1C2)OCC4` [DC037081, S-(−)-9-methoxyl-10-hydroxy-2,3,5,8,13,13a-hexahydro-8H-benzo[3,2,a,g]furanquinolizine], the “D1 receptor inhibition ratio (%)” value in test [1] was found to be 22.60%. Further, the Ki is 147 ± 10.2 nM in test [2] and 17.3 ± 0.54 nM in test [3]. Also, the “D2 receptor inhibition ratio (%)” value in test [4] turned out to be 73.07%.

As to `Cc1ccc(C)c2c1CC1c3cc4c(cc3CCN1C2)OCO4` (stereo not drawn) [DC037033, S-(−)-2,3-methylenedioxy-9,12-dimethyl-5,8,13,13a-tetrahydro-6H-dibenzo[a,g]quinolizine], the “D1 receptor inhibition ratio (%)” value in test [1] was 91.94%. In test [4], the “D2 receptor inhibition ratio (%)” value turned out to be 13.75%.

As to `COc1cc2c(cc1OC)C1Cc3cc(OC)c(OC)c(OC)c3CN1CC2` (racemic) [DC037002, (±)-2,3,9,10,11-pentamethoxyl-5,8,13,13a-tetrahydro-6H-dibenzo[a,g]quinolizine], the “D1 receptor inhibition ratio (%)” value in test [1] worked out at 77.95%. For the same compound, the “D2 receptor inhibition ratio (%)” value in test [4] is given as 27.05%.

Broadly, the Emax is the greatest response seen or fitted, relative to the assay's reference. As to `Oc1cc2c(cc1O)C(c1ccccc1)CNCC2` (centres unmarked) [SKF38393, reference compound], the Emax in test [6] was found to be 100%.

For the compound `COc1cc2c(cc1OC)CN1CCc3cc4c(cc3[C@@H]1C2)OCO4` [DC037015, S-(−)-2,3-methylenedioxy-10,11-bimethoxy-5,8,13,13a-tetrahydro-6H-dibenzo[a,g]quinolizine], the “D1 receptor inhibition ratio (%)” value in test [1] came out at 59.2%. Also, the “D2 receptor inhibition ratio (%)” value in test [4] is on record as 59.3%.

With `COc1cc2c(c(OC)c1)CN1CCc3cc4c(cc3[C@@H]1C2)OCO4` [DC037078, (S)-2,3-methylenedioxy-9,11-bimethoxy-5,8,13,13a-tetrahydro-6H-dibenzo[a,g]quinolizine], in test [1], the “D1 receptor inhibition ratio (%)” value was determined as 97.79%, the IC50 is 142 nM and the Ki came to 74.5 nM. Moreover, the “D2 Inhibition (%)” value in test [2] was determined as 39.50%. In test [3], this compound gave a Ki of 64.1 ± 4.43 nM. Besides, in test [4], the “D2 receptor inhibition ratio (%)” value was 1.02%.

Turning to `COc1ccc(OC)c2c1C[C@H]1c3cc(O)c(O)cc3CCN1C2` [DC037035, S-(−)-2,3-bihydroxy-9,12-bimethoxy-5,8,13,13a-tetrahydro-6H-dibenzo[a,g]quinolizine], in test [1], the “D1 receptor inhibition ratio (%)” value was 99.68%, the IC50 was determined as 13.3 nM, the Ki came to 6.72 nM and the “affinity on dopamine D1 receptor (in words)” value is “strong affinity”. Besides, the “D2 Inhibition (%)” value in test [2] stood at 84.30%. The Ki in test [3] is 6.72 ± 0.34 nM. Further, in test [4], the “D2 receptor inhibition ratio (%)” value is on record as 84.30% and the “affinity on dopamine D2 receptor (in words)” value was “strong affinity”.

As to `COc1ccc2c(c1)CCN1Cc3cc(OC)c(OC)cc3CC21` (racemic) [DC037009, (±)-3,10,11-trimethoxy-5,8,13,13a-tetrahydro-6H-dibenzo[a,g]quinolizine], the “D1 receptor inhibition ratio (%)” value in test [1] is recorded as −13.6%. In test [4], the “D2 receptor inhibition ratio (%)” value came out at 0.35%.

In the case of `COc1cc2c(cc1OC)[C@@H]1Cc3cc4c(cc3[C@H](C)N1CC2)OCO4` [DC037020, (8S,14S)-2,3-bimethoxy-8-methyl-10,11-methylenedioxy-5,8,13,13a-tetrahydro-6H-dibenzo[a,g]quinolizine], in test [1], the “D1 receptor inhibition ratio (%)” value came out at 47.3%. Further, the “D2 receptor inhibition ratio (%)” value in test [4] is on record as 57.1%.

For the origin of these results see US9359372B2, “Hexahydrodibenzo[a,g]quinolizine compound, preparation method thereof, pharmaceutical composition and use thereof” (SHANGHAI INSTITUTE OF MATERIA MEDICA, CHINESE ACADEMY OF …, priority 2011, dated 2016).
